The results in this text go back to US20170153247A1, “METHOD FOR RISK ASSESSMENT OF ALLERGIC REACTION” (Excelsior Bio-System Incorporation, priority 2015, published 2017).

The subject of experiment [1] is specific IgE in serum samples. The experiment can be described thus: Serum samples analysis on peptide array (IgE immunofluorescence assay). In kind it is binding, human. From the text: A plurality of peptide probes are synthesized according to each of the above peptide fragments of Der p1, Der p2, and Der p10. Theses synthesized peptide probes are spotted on a solid surface to construct a peptide array. The peptide array includes at least one reaction area, and each reaction area includes at least one reaction block. […] The peptide array of FIG. 11 includes at least one reaction area, and each reaction area includes 4 reaction blocks, namely R1, R2, R3, and R4.
Serum samples are used and labeled to evaluate the peptide array of the present embodiment. The labeled serum samples include 23 positive serum samples obtained from patients showing allergy symptoms, one negative serum sample, and one blank. Conventional protein arrays are also used in the test, probes for which being allergens extracted from allergenic substances derived from natural origins, such as crabs, shrimps, dust mites (Dermatophagoides farinae), house dust mites and storage mites (Blomia tropicalis). Group 10 allergens (tropomyosins) have been assumed to be a major cause of cross-reactivity between house dust mites and other invertebrates.
The sample serum is diluted with diluent buffer containing adequate amount of BSA, no-fat milk, and Tween-20. The peptide array of the present embodiment is incubated with each serum sample respectively at 37° C. for 1 hour. […]

Experiment [2] relates to binding between IgE in serum sample U and crab antigens. The experiment in a line: IgE inhibition experiment, conventional protein array spotted with crab antigens. The arrangement: species or system human. On the procedure:
(§1) The sample serum is diluted with diluent buffer containing adequate amount of BSA, no-fat milk, and Tween-20. The peptide array of the present embodiment is incubated with each serum sample respectively at 37° C. for 1 hour. A wash buffer containing Tween-20 is added to the reaction area of the peptide array to wash out extra serum. Anti-human IgE antibody labeled with Cy3 is added to the reaction area of the peptide array. The anti-human IgE with Cy3 binds on antibodies in the sample serum that binds to the peptide probes in the reaction area. The peptide array is then incubated
(§2) at 37° C. for 1 hour in darkness. The diluent, wash buffer, and anti-human IgE with Cy3 is provided by EBS Immunoflourescence Specific IgE Assay. A laser scanner with FD532 nm detector is utilized to scan the peptide array after incubation. The intensities of FD532 nm of each peptide probe on the peptide array can be obtained. For protein arrays the positive values are highlighted, while for peptide arrays the numbers (No.) of the peptide probes showing positive values are listed. […] For the peptide array of the present embodiment, although all of the peptide probes are derived from antigens of house dust mites, only a number of probes are bound to the serum samples and generate positive results.
(§3) Generally, the serum sample U is incubated with different concentration Der-p10-17 peptide (#60) for 30 minutes, and then serum sample U is transferred on conventional protein arrays spotted with crab, shrimp, dust mite and house dust mite antigens. In each of these arrays, different reaction blocks represent serum sample U incubated with different concentrations of Der-p10-17 (#60), where X1 is serum sample U incubated with the original concentration of Der-p10-17 (#60). X2 is serum sample U incubated with 2-fold dilution of the original concentration, X4 is serum sample U incubated with a 4-fold dilution and X8 is serum sample U incubated with an 8-fold dilution. The experiment protocol in Table 5A-5D and FIGS. 12A-12D may refer to the IgE immunofluorescence assay used in Table 4. The F532 nm intensity value of crabs, shrimps, dust mites, and house mites are shown respectively. Various concentrations of Der-p10-17 peptide (#60) are tested to evaluate the dependence of inhibition on the inhibitor peptide concentration. The results of the IgE inhibition experiments are presented in FIGS. 12A-12D and Tables 5A-5D.

For experiment [3], the system named is binding between IgE in serum sample U and shrimp antigens. The experiment in a line: IgE inhibition experiment, conventional protein array spotted with shrimp antigens. Also noted: species or system human. As for the experimental part:
as §1, §2, §3

The test system of experiment [4] is binding between IgE in serum sample U and house dust mite antigens. The experiment can be described thus: IgE inhibition experiment, conventional protein array spotted with house dust mite antigens. Also noted: species or system human. As for the experimental part: (§4) The sample serum is diluted with diluent buffer containing adequate amount of BSA, no-fat milk, and Tween-20. The peptide array of the present embodiment is incubated with each serum sample respectively at 37° C. for 1 hour. A wash buffer containing Tween-20 is added to the reaction area of the peptide array to wash out extra serum. Anti-human IgE antibody labeled with Cy3 is added to the reaction area of the peptide array. The anti-human IgE with Cy3 binds on antibodies in the sample serum that binds to the peptide probes in the reaction area. The peptide array is then incubated at 37° C. for 1 hour in darkness. The diluent, wash buffer, and anti-human IgE with Cy3 is provided by EBS Immunoflourescence Specific IgE Assay. A laser scanner with FD532 nm detector is utilized to scan the peptide array after incubation. The intensities of FD532 nm of each peptide probe on the peptide array can be obtained. For protein arrays the positive values are highlighted, while for peptide arrays the numbers (No.) of the peptide probes showing positive values are listed. […] For the peptide array of the present embodiment, although all of the peptide probes are derived from antigens of house dust mites, only a number of probes are bound to the serum samples and generate positive results. Generally, the serum sample U is incubated with different concentration Der-p10-17 peptide (#60) for 30 minutes, and then serum sample U is transferred on conventional protein arrays spotted with crab, shrimp, dust mite and house dust mite antigens. In each of these arrays, different reaction blocks represent serum sample U incubated with different concentrations of Der-p10-17 (#60), where X1 is serum sample U incubated with the original concentration of Der-p10-17 (#60). X2 is serum sample U incubated with 2-fold dilution of the original concentration, X4 is serum sample U incubated with a 4-fold dilution and X8 is serum sample U incubated with an 8-fold dilution. The experiment protocol in Table 5A-5D and FIGS. 12A-12D may refer to the IgE immunofluorescence assay used in Table 4. The […] nm intensity value of crabs, shrimps, dust mites, and house mites are shown respectively. Various concentrations of Der-p10-17 peptide (#60) are tested to evaluate the dependence of inhibition on the inhibitor peptide concentration. The results of the IgE inhibition experiments are presented in FIGS. 12A-12D and Tables 5A-5D.

In experiment [5] the test system is binding between IgE in serum sample U and dust mite antigens. The experiment can be described thus: IgE inhibition experiment, conventional protein array spotted with dust mite antigens. Also noted: species or system human. On the procedure: as §4
The mark [6] stands for this setting: Block 2-X8, serum sample U pre-incubated 30 minutes with 8-fold dilution of peptide.
The mark [7] stands for this setting: Block 3-X4, 4-fold dilution of peptide.
Where [8] appears, read: Block 4-X2, 2-fold dilution of peptide.
The mark [9] stands for this setting: Block 5-X1, original concentration of peptide.

For the sequence ELDQTFAELTGY [Der-p10-17], in experiment [1] (peptide array), the “binding of peptide probe to IgE in serum samples” value is “can bind to IgE in serum samples”. Besides, in experiment [1] (serum sample U, Table 4), the “reactivity of serum sample U on the peptide array” value is given as “reactive”. For the same sequence, the “F532 nm intensity value, crabs” value in experiment [2] (Block 2-X8) came to 14893; in experiment [2] (setting [6]) it was 15148; in experiment [2] (Block 3-X4, serum sample U pre-incubated with 4-fold dilution of peptide), 11803; in experiment [2] (Block 4-X2, serum sample U pre-incubated with 2-fold dilution of peptide) it was 10695; in experiment [2] (Block 5-X1, serum sample U pre-incubated with original concentration of peptide), 13067. Moreover, the “inhibition of IgE cross-linking / decrease of intensity values, crab” value in experiment [2] (serum sample U) was “can inhibit the IgE cross-linking between shrimp and crab”. Besides, the “F532 nm intensity value, shrimps” value in experiment [3] (Block 2-X8) came to 16678; in experiment [3] (setting [6]) it was 17902; in experiment [3] (setting [7]), 14759; in experiment [3] (setting [8]), 14481; in experiment [3] (setting [9]), 15396. Also, the “inhibition of IgE cross-linking / decrease of intensity values, shrimp” value in experiment [3] (serum sample U) is “can inhibit the IgE cross-linking between shrimp and crab”. For the same sequence, the “F532 nm intensity value, house dust mites” value in experiment [4] (setting [6]) is given as 3288; in experiment [4] (setting [7]), 3247; in experiment [4] (setting [8]), 3659; in experiment [4] (setting [9]), 4288. The “inhibition of binding between IgE and antigens extracted from natural house dust mites” value in experiment [4] (serum sample U) was “can inhibit the binding between IgE and antigens extracted from natural house dust mites”. Further, the “F532 nm intensity value, dust mites” value in experiment [5] (Block 2-X8) amounted to 5767; in experiment [5] (setting [6]), 5979; in experiment [5] (setting [7]), 4767; in experiment [5] (setting [8]), 4428; in experiment [5] (setting [9]), 5475.
